Patent US20130059812A1 (priority 2010, published 2013)

How the values were obtained:
[1] = system: wild-type HBV; test: microbe, parasite or virus in culture; assay type: cell-based, Hepatitis B virus (HBV); settings: Huh-7 cells, 4th day of transfection, clevudine 0.9 μM
Procedure: About 20˜24 hours before the transfection, Huh-7 cell lines were maintained on 6-well plates to be 4×10^5 cells/well with 70˜80% confluence and then cultured. 2 hours before the transfection, the culture medium was removed from the stabilized cells and replaced with a serum-free medium containing clevudine, adefovir dipivoxil or a combined preparation of clevudine and adefovir dipivoxil in a predetermined dilution to be 2 mL/well. Using lipofectamine (Invitrogen), the cells were transfected with wild-type HBV DNA to be 2 μg per well. The concentration of antiviral agents was 0.9 μM of clevudine, 6.3 μM of adefovir dipivoxil, 0.9 μM+6.3 μM of clevudine+adefovir dipivoxil or 1.8 μM+6.3 μM of clevudine+adefovir dipivoxil. About 5 hours after the transfection, the culture medium was replaced with that treated with the antiviral agents, and then the medium was replaced every 24 hours.
On the 4th day of the transfection, the cells were washed with cold PBS and then collected. […]
Electrophoresis was carried out with the separated HBV DNA on 1% agarose gel, which was then transferred to a positively charged nylon membrane. […] An antiviral effect of the combined formulation of clevudine and adefovir dipivoxil was determined using phosphor imager compared with single treatment of clevudine or adefovir dipivoxil.

[2] = system: HBV; test: Antiviral efficacy test in the treatment of chronic hepatitis B patients; assay type: in vivo; settings: n=20 per group
Procedure: A total of 40 patients were divided into two groups, to one of which 30 mg of clevudine was administered daily for 24 weeks (group treated with clevudine only; n=20). To another group, a combined formulation of 30 mg of clevudine and 10 mg of adefovir dipivoxil was administered daily for 12 weeks, then administration of adefovir dipivoxil was stopped and only 30 mg of clevudine was administered daily for the remaining period (group treated with combined formulation of clevudine+adefovir dipivoxil; n=20).

[3] = system: patient-derived rtM204I mutant virus; assay type: cell-based, Hepatitis B virus (HBV); settings: untreated control group = 100%, Huh-7 cells, 4th day, clevudine 0.9 μM, adefovir dipivoxil 6.3 μM, combination 0.9 μM+6.3 μM
Procedure: About 20˜24 hours before the transfection, Huh-7 cell lines were maintained on 6-well plates to be 4×10^5 cells/well with 70˜80% confluence and then cultured. 2 hours before the transfection, the culture medium was removed from the stabilized cells and replaced with a serum-free medium containing clevudine, adefovir dipivoxil or a combined formulation of clevudine and adefovir dipivoxil in a predetermined dilution to be 2 mL/well. Using lipofectamine (Invitrogen), the cells were transfected with HBV mutant DNA to be 2 μg per well. The concentration of antiviral agents was 0.9 μM of clevudine, 6.3 μM of adefovir dipivoxil, 0.9 μM+6.3 μM of clevudine+adefovir dipivoxil or 1.8 μM+6.3 μM of clevudine+adefovir dipivoxil. About 5 hours after the transfection, the culture medium was replaced with that treated with the antiviral agents, and then the medium was replaced every 24 hours.
On the 4th day of the transfection, the cells were washed with cold PBS and then collected. The collected cells were lysed with cold Hepes lysis buffer (1% NP-40) and then centrifuged. The supernatant was treated with nuclease to remove DNA of the transfected cells. Core protein of capsid form was precipitated with 26% PEG solution. The capsid protein was removed by 0.5% SDS solution and Proteinase K and then HBV DNA in the capsid was separated. […]

Compound: Cc1cn([C@H]2O[C@@H](CO)[C@H](O)[C@H]2F)c(=O)[nH]c1=O [clevudine, 1-(2′-deoxy-2′-fluoro-β-L-arabinofuranosyl)thymine]
- inhibition at 0.9 µM ([1]; Hepatitis B virus, concentration of the combination not stated, read-out: inhibition rate of wild-type HBV replication): 34.1%
- rate of wild-type HBV replication ([1]; untreated control group = 100%, adefovir dipivoxil 6.3 μM, concentration of the combination not stated (0.9 μM+6.3 μM or 1.8 μM+6.3 μM)): 65.91%
- number of HBV DNA copy ([2]; 12 weeks after the administration, 30 mg clevudine daily, or 30 mg clevudine + 10 mg adefovir dipivoxil daily): −2.67 log 10 copies/mL
- number of HBV DNA copy ([2]; 24 weeks after the administration, 30 mg clevudine daily for 24 weeks, or combination for 12 weeks then only 30 mg clevudine daily): −4.15 log 10 copies/mL
- rate of mutant virus replication [3]: 87.43%
